# Where two headings read alike, the source gives them in different places.
# Assays:
# Assay type in all cases: biochemical
# [1] = system: rabbit skeletal muscle myosin; experiment: Inhibition of hydrolysis of ATP by rabbit skeletal muscle myosin
# Procedure: The purpose of this test was to evaluate the ability of compounds to inhibit the hydrolysis of ATP by rabbit skeletal muscle myosin. The determination method was as follows:
# • Preformed F-actin filaments (#AKF99-B, Cytoskeleton) were diluted to 1 mg/mL with Reaction buffer (25 mM Tris-HCL, pH 7.5+35 mM KCl+0.1 mM EGTA+1 mM MgCl2); • Rabbit myosin (#MYO2-A, Cytoskeleton) was diluted to 0.1 mg/mL with Resuspension buffer (15 mM Tris-HCL, PH7.5+0.2 M KCl+1 mM MgCl2); • ATP (#BSA04-001, Cytoskeleton) was diluted to 3 mM working solution with 15 mM Tris-HCL (PH=7.5);
# • adding 13 μL reaction buffer+12 μL F-actin to actin control wells; • adding 10 μL reaction buffer+12 μL F-actin+3 μL myosin II to positive control wells; • adding 10 μL of compound working solution+12 μL of F-actin+3 μL of myosin II to the compound wells; • adding 5 μL of ATP working solution to all test wells to start the reaction, and simultaneously adding a sample to the Pi standard wells according to the instruction (#BK054, Cytoskeleton); • gently mixing and accurately incubating at 37° C. for 60 min; • adding 70 μL of CytoPhos Reagent (#BK054, Cytoskeleton) to each well and incubating for 10 min to stop the reaction.
# • the OD value of each well was detected at 650 nm using the endpoint method. The standard curve was fitted according to Pi concentration and OD value, and the Pi concentration of each test well was obtained. Inhibition (%)=(Pi positive control well-Pi test well)/Pi positive control well*100%. The Inhibition %-[…] curve was fitted with Graphpad Prism 8 software, and IC50 was calculated.
# smooth muscle myosin S1 = molecular target: T1, smooth muscle myosin S1 (Gallus gallus, UniProt P10587); experiment: Inhibition of hydrolysis of ATP by smooth muscle myosin S1 fragments; conditions: for inhibition at 100 µM / Smooth muscle myosin S1 (Inhibition @ 100 μM): 100 μM compound
# T1 construct: purchased Cytoskeleton #CS-MYS05
# Procedure: The purpose of this test was to evaluate the ability of compounds to inhibit the hydrolysis of ATP by smooth muscle myosin Si fragments. The determination method was as follows: • 1. Solution formulation • F-actin polymer: Cardiac Actin powder (#CS-AD99, Cytoskeleton) was dissolved in a buffer (5 mM Pipes-KOH solution, PH=7.0, containing 100 μM ATP and 500 μM DTT) to form a 2 mg/mL solution and the solution was left at room temperature for 30 min; then 2 mM MgCl2 and 2 mM EGTA were added and the obtained system was left at room temperature for 40 min; • Smooth muscle SI fragment (#CS-MYS05, Cytoskeleton) was diluted with a pre-cooled PM12 buffer containing 1 mM DTT (12 mM Pipes-KOH solution, PH=7.0, containing 2 mM MgCl2) to form a 0.7 mg/mL solution; • ATP (#BSA04-001, Cytoskeleton) was diluted to 5 mM working solution with 15 mM Tris-HCL (PH=7.5); • 2. […] Experimental steps: • adding 10 μL of compound working solution+6 μL of F-actin polymer+4 μL of Smooth muscle Si fragment solution to the compound wells; • adding 10 μL of PM12 buffer containing DMSO+6 μL of F-actin polymer+4 μL of Smooth muscle S1 fragment solution to positive control wells; • adding 10 μL of PM12 buffer containing DMSO+6 μL of F-actin polymer+4 μL of PM12 buffer to negative control wells; • adding […] of 5 mM ATP working solution to all test wells to start the reaction, gently mixing and incubating at 37° C. for 20 min; • after the reaction was completed, taking 6 μLL of reaction liquid, adding 24 μL of PM12 buffer for 5-fold dilution, then detecting the content of the product Pi with a phosphate kit (#BK054, Cytoskeleton); • adding a standard according to the instructions, adding 70 μL of CytoPhos Reagent (#BK054, Cytoskeleton) to all wells and incubating at room temperature for 10 min before detection. • 4. Detection: • the OD value of each well was detected at 650 nm. The standard curve was fitted according to Pi standard concentration and OD value, and the Pi concentration of each test well was obtained. Inhibition (%)=(positive control well−test well)/positive control well*100%.
# cardiac myosin SII = molecular target: T2, cardiac myosin SII (Bos taurus, UniProt Q9BE39); experiment: Inhibition of hydrolysis of ATP by cardiac myosin SII; conditions: 100 μM compound
# T2 construct: purchased Cytoskeleton #MYO3-A
# Procedure: The purpose of this test was to evaluate the ability of compounds to inhibit the hydrolysis of ATP by cardiac myosin SII. The determination method was as follows: • 1. Solution formulation: • Preformed F-actin filaments (#AKF99-B, Cytoskeleton) were diluted to 1 mg/mL with Reaction buffer (15 mM Tris-HCL. PH7.5+10 mM KCl+0.1 mM EGTA+2 mM MgCl2); • Cardiac Muscle myosin (#MYO3-A, Cytoskeleton) was diluted to 1 mg/mL with Resuspension buffer (15 mM Tris-HCL, PH7.5+0.2M KCl+1 mM MgCl2); • ATP (#BSA04-001, Cytoskeleton) was diluted to 3 mM working solution with 15 mM Tris-HCL (PH=7.5); • 2. Formulation of working solution of compounds: the final compound concentration was 100 μM • 3. Experimental steps: • adding 10 μL of compound working solution+12 μL of Preformed F-actin filaments+3 μL of Cardiac Muscle myosin to the compound wells; • adding 10 μL of reaction buffer containing DMSO+12 μL Preformed F-actin filaments +3 μL Cardiac Muscle myosin to positive control wells; • adding 10 μL of reaction buffer containing DMSO+12 μL Preformed F-actin filaments +3 μL Resuspension buffer to negative control wells; • adding 5 μL of 3 mM ATP working solution to all test wells to start the reaction, gently mixing and incubating at 37° C. for 2 h; • after the reaction was completed, taking 6 μL of reaction liquid, adding 24 μL of reaction buffer for 5-fold dilution, then detecting the content of the product Pi with a phosphate kit (#BK054, Cytoskeleton); • adding a sample to Pi standard wells according to the instructions; • adding 70 μL of CytoPhos Reagent (#BK054, Cytoskeleton) to each well and incubating at room temperature for 10 min before detection. • 4. Detection: • the OD value of each well was detected at 650 nm. The standard curve was fitted according to Pi standard concentration and OD value, and the Pi concentration of each test well was obtained. Inhibition (%)=(positive control well−test well)/positive control well*100%.
# [2] = inhibition of hydrolysis of ATP, class symbols, read-out: Rabbit skeletal muscle myosin (IC50)
# [3] = read-out: IC50 for inhibition of hydrolysis of ATP by rabbit skeletal muscle myosin
# T1 sequence (P10587 84-789 limits assumed): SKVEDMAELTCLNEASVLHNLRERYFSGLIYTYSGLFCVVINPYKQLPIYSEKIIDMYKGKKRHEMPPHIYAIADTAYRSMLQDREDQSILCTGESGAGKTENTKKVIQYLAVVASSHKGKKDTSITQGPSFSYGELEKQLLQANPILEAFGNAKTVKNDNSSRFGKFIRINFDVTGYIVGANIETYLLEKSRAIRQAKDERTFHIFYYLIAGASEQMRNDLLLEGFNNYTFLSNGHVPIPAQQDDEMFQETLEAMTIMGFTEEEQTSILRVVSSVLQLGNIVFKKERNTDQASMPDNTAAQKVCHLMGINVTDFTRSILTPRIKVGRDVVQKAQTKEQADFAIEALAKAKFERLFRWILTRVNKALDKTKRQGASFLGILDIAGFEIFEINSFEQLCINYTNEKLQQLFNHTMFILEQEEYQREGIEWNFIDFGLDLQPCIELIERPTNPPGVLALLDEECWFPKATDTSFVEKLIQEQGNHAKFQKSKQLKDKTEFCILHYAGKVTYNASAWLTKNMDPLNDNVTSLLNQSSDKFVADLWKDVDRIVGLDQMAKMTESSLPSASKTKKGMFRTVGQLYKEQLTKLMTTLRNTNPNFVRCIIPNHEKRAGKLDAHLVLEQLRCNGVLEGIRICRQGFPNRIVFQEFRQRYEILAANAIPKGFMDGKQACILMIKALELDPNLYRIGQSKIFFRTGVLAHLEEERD
# T1 sequence (P02607 whole entry partner, the tested form may be a part): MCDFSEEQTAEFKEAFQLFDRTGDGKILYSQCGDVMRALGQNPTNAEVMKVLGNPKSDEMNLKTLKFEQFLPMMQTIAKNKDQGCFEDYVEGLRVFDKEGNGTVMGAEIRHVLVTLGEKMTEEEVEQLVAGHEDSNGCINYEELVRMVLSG
# T2 sequence (Q9BE39 whole entry): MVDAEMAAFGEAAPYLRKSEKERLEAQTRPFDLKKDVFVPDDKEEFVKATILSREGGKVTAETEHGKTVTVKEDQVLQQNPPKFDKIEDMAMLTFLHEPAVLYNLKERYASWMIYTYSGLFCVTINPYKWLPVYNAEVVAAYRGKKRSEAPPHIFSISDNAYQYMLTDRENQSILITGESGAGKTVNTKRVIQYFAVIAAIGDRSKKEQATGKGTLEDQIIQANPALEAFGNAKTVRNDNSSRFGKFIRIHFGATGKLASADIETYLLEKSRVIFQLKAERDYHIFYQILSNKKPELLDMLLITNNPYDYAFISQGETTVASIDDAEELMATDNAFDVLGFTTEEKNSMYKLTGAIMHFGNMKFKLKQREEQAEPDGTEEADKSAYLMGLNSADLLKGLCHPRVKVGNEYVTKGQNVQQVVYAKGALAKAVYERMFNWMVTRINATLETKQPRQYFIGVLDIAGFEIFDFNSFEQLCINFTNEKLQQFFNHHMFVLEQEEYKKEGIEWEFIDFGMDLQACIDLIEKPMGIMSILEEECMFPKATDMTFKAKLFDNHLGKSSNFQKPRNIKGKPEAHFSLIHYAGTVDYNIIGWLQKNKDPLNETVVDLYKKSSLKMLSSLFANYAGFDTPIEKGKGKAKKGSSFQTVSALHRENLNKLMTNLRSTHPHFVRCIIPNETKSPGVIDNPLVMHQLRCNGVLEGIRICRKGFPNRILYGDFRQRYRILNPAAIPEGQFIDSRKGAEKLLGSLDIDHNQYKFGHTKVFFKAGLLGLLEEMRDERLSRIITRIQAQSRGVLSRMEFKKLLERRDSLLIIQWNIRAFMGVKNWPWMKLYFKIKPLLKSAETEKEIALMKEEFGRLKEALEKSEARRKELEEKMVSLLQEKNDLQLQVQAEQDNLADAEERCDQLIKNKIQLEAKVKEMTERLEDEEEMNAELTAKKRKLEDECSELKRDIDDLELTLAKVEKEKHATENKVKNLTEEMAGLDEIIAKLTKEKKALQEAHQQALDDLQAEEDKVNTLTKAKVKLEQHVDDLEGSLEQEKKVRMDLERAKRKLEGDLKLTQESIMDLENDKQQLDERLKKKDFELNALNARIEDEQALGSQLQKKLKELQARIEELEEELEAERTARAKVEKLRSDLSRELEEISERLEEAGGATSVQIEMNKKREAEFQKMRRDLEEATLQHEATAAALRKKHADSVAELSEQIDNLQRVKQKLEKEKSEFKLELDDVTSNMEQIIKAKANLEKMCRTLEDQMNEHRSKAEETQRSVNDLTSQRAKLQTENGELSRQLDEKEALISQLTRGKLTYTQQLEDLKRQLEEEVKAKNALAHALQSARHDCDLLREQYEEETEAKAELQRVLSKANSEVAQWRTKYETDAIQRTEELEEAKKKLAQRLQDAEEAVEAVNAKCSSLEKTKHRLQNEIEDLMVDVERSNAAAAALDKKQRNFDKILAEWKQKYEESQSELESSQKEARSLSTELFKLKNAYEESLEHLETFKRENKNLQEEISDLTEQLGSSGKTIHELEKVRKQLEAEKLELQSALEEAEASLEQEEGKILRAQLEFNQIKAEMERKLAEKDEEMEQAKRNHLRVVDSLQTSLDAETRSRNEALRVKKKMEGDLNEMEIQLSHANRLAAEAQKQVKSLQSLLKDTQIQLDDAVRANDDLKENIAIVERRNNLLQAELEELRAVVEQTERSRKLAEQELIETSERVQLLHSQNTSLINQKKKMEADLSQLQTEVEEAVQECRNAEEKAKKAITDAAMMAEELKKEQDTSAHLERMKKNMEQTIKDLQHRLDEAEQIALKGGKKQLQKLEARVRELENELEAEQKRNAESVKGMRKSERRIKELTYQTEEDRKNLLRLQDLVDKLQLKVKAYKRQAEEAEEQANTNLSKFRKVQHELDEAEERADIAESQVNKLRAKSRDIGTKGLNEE
# T2 sequence (P85100 whole entry partner): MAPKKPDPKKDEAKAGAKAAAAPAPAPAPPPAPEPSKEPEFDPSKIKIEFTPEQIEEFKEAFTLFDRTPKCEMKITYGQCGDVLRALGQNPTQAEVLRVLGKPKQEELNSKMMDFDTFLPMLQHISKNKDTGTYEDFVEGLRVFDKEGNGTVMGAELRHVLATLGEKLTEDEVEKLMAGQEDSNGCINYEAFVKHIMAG
# T2 sequence (Q3SZE5 whole entry partner): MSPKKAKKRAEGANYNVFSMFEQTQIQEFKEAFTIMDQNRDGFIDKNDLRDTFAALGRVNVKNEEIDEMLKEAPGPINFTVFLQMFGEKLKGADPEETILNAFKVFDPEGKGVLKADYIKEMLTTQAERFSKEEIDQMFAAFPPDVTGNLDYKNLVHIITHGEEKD
SMILES,"IC50 [1, 2] [µM]",inhibition at 100 µM (smooth muscle myosin S1) [%],inhibition at 100 µM (cardiac myosin SII) [%],"IC50 [1, 3] [µM]",inhibition at 50 µM (smooth muscle myosin S1) [%],Smooth muscle myosin S1 (Inhibition @ 100 μM) (smooth muscle myosin S1) [%],Cardiac myosin SII (Inhibition @ 100 μM) (cardiac myosin SII) [%]
O=c1ccc(-c2cnc(Oc3nccs3)nc2)nn1Cc1ccc2c(c1)CCC2 [Compound 130],2.5 to 20,2,3,–,–,–,–
O=c1ccc(-c2cnc(OC3CCOCC3)nc2)nn1Cc1ccc2c(c1)CC2 [Compound 95],2.5 to 20,-2,2,–,–,–,–
O=C1CCc2c(Cl)cc(Cn3nc(-c4cnc(OCC(F)(F)F)nc4)ccc3=O)cc21 [Compound 166],< 2.5,6,17,–,–,–,–
N#CC1(COc2ncc(-c3ccc(=O)n(Cc4ccc5c(c4)CCC5)n3)cn2)CC1 [Compound 105],< 2.5,16,16,0.9,–,–,–
O=c1ccc(-c2cnc(OCC(F)(F)F)nc2)nn1Cc1ccc2c(c1)C(F)(F)CC2 [Compound 93],< 2.5,-14,-16,0.7,–,–,–
O=C1CCc2ccc(Cn3nc(-c4cnc(Oc5cncc(C(F)(F)F)c5)nc4)ccc3=O)cc21 [Compound 142],2.5 to 20,2,-8,–,–,–,–
O=c1ccc(-c2cnc(C3CC(F)(F)C3)nc2)nn1Cc1ccc2c(c1)CCC2 [Compound 127],< 2.5,-6,8,–,–,–,–
O=c1ccc(-c2cnc(OCC(F)(F)F)nc2)nn1Cc1cc(F)c2c(c1)CCC2 [Compound 73],< 2.5,-3,10.2,0.55,–,–,–
CN1CC(Oc2ncc(-c3ccc(=O)n(Cc4ccc5c(c4)CC5)n3)cn2)C1 [Compound 104],< 2.5,20.7,8.9,0.8,–,–,–
O=c1ccc(-c2cnc(OCC(F)(F)F)nc2)nn1Cc1ccc2c(c1)CC1CC21 (stereo not drawn) [Compound 156],< 2.5,-11,7,0.9,–,–,–
O=c1ccc(-c2cnc(OCC(F)F)nc2)nn1Cc1ccc2c(c1)CCC2 [Compound 67],< 2.5,3,2,–,–,–,–
O=c1ccc(-c2cnc(OCC3(F)CC3)nc2)nn1Cc1ccc2c(c1)CCC2 [Compound 108],< 2.5,-0.9,4.5,0.2,–,–,–
O=c1ccc(-c2cnc(Oc3cncc(F)c3)nc2)nn1Cc1ccc2c(c1)CCC2 [Compound 115],< 2.5,3,3,–,–,–,–
O=C1CCc2cc(F)c(Cn3nc(-c4cnc(OCC(F)(F)F)nc4)ccc3=O)cc21 [Compound 136],< 2.5,-4,-7,–,–,–,–
O=C1CCc2ccc(Cn3nc(-c4cnc(Oc5csc(C(F)(F)F)c5)nc4)ccc3=O)cc21 [Compound 155],< 2.5,5,1,–,–,–,–
O=c1ccc(-c2cnc(OCC3CC3)nc2)nn1Cc1ccc2c(c1)CCC2 [Compound 80],< 2.5,–,-17.8,0.5,9.3,–,–
O=c1ccc(-c2cnc(OCC(F)(F)F)nc2)nn1Cc1ccc2c(c1)CCCC2(F)F [Compound 89],2.5 to 20,17.6,13.7,–,–,–,–
O=c1ccc(-c2cnc(OCC(F)(F)F)nc2)nn1Cc1ccc2c(c1)C1CC1C2 (stereo not drawn) [Compound 159],< 2.5,–,–,0.4,–,5,7

# Continued, values first:
"IC50 [1, 2] [µM]",inhibition at 100 µM (smooth muscle myosin S1) [%],inhibition at 100 µM (cardiac myosin SII) [%],"IC50 [1, 3] [µM]",inhibition at 50 µM (smooth muscle myosin S1) [%],Smooth muscle myosin S1 (Inhibition @ 100 μM) (smooth muscle myosin S1) [%],Cardiac myosin SII (Inhibition @ 100 μM) (cardiac myosin SII) [%],SMILES
< 2.5,-3.5,9.7,0.1,–,–,–,O=c1ccc(-c2cnc(C3CCC3)nc2)nn1Cc1ccc2c(c1)CC2 [Compound 109]
< 2.5,–,-5.6,–,10.9,–,–,O=c1ccc(-c2cnc(OCC3CC3(F)F)nc2)nn1Cc1ccc2c(c1)CCC2 (stereo not drawn) [Compound 81]
< 2.5,5.3,15.8,0.29,–,–,–,O=c1ccc(-c2cnc(OCC(F)F)nc2)nn1Cc1cc(F)c2c(c1)CCC2 [Compound 74]
< 2.5,–,–,0.8,–,2,−6,O=c1ccc(-c2cnc(OCC(F)(F)F)nc2)nn1Cc1ccc2c(c1)C1CC1C2 (stereo not drawn) [Compound 140]
< 2.5,-2,-5,0.4,–,–,–,O=c1cc2c(nn1Cc1ccc3c(c1)CC3)-c1cnc(OCC(F)(F)F)nc1CC2 [Compound 102]
< 2.5,-6,1,0.8,–,–,–,CC(F)(F)COc1ncc(-c2ccc(=O)n(Cc3ccc4c(c3)CCC4)n2)cn1 [Compound 110]
< 2.5,8,1,–,–,–,–,O=c1ccc(-c2cnc(Oc3cncc(C(F)(F)F)c3)nc2)nn1Cc1ccc2c(c1)CCC2 [Compound 134]
< 2.5,-3,14,0.7,–,–,–,O=c1ccc(-c2cnc(O[C@H]3CCOC3)nc2)nn1Cc1ccc2c(c1)CCC2 [Compound 120]
< 2.5,7,7,0.5,–,–,–,O=c1ccc(-c2cnc(O[C@@H]3CCOC3)nc2)nn1Cc1ccc2c(c1)CCC2 [Compound 126]
< 2.5,–,-3.8,–,20.2,–,–,O=c1ccc(-c2cnc(OC3CC3)nc2)nn1Cc1ccc2c(c1)CCC2 [Compound 84]
< 2.5,8,-4,–,–,–,–,O=c1ccc(-c2cnc(Oc3ccnc(C(F)(F)F)c3)nc2)nn1Cc1ccc2c(c1)CCC2 [Compound 133]
